US20150024008A1, “Methods and Compositions Involving Induced Senescent Cells for Cancer Treatment” (THE UNIVERSITY OF CHICAGO, priority 2011, published 2015)

Tests used:
[1] = system: B16 tumors; test: Flow cytometry of tumor infiltrating lymphocytes from B16 tumors; format: in vivo, mouse; conditions: veliparib+IR
Method: (§1) Mouse melanoma cell line B16SIY (5×10^5 cells) were implanted subcutaneously in the flank of 6 to 8-wk-old C57/B6 mice. Tumors were allowed to grow until they reached a volume of about 100 to 150 mm^3 (approximately 2 wk) before treatment with PARP inhibitor veliparib (vrib, (R)-2-(2-methylpyrrolidin-2-yl)-1H-benzo[d]imidazole-4-carboxamide, ABT-888) and/or IR (Dunn 2006). Mice received 0.5 mg of veliparib in water twice daily by oral gavage as indicated. CD8^+, CD4^+, NK cells were depleted by anti-CD8 or anti-CD4 or anti-NK1.1, respectively, 1 d before IR. Depletion was confirmed by checking peripheral blood samples by flow cytometry. Macrophages were depleted with liposomal clodronate starting 1 d before IR. Depletion was confirmed by checking splenocyte and tumor samples by flow cytometry (Zhang 2008). Samples were collected 2 to 7 days later, and analyzed by flow cytometry using a BD LSRII flow cytometer. Blood samples were gated in forward scatter and side scatter on smaller cells for CD8, CD4 analysis, larger cells for NK and macrophage, and the percentage of different cell types were determined (Lugade 2008, Zhang 2010).

[2] = system: bone marrow dendritic cells (CD11c); test: Coculture of DCs with senescent TRAMP-C2 cells, immunostimulation assay; conditions: CD45 positive cells
Method: Briefly 2×10^6 of collected BM cells were resuspended in 10 ml of complete medium (CM) (RPMI, 10% FBS, pen/strep, HEPES) +20 ng/ml mouse granulocyte-macrophage colony-stimulating factor (GM-CSF). BM were transferred to uncoated plastic Petri dish. On a third day 10 ml of fresh CM+20 ng/ml GM-CSF were added. Immature dendritic cells (DC) were harvested on day 5, were suspended at 5×10^6 cells/ml in ice-cold freezing medium (CM+10 ng/ml GM-CSF+10% DMSO) and frozen for future experiments.
Assayed cells (TRAMP-C2) were plated 2.5×10^5 p100 plates and next day irradiated (6Gy) and 25 μM veliparib to obtained senescent phenotype. For TRAMP-C2 the coculture was started 6 days after cell irradiation and veliparib treatment. DCs were thawed and plated in CM+10 ng/ml GM-CSF 24 hours before they were cocultured with senescent TRAMP-C2 cells. In a day when co-culture started DCs were detached with trypsin and washed twice with phosphate buffered saline (PBS) to remove GM-CSF. Senescent TRAMP-C2 cells culture was washed with PBS and medium also changed to remove veliparib. Washed DCs and senescent cells were cocultured in fresh medium for 2-3 days.
After coculture medium was collected to harvest non-adherent cells fraction. […]
As CD45 is marker of immune cells, only CD45 positive cells were analyzed and TRAMP-C2 cells could be excluded from analysis as CD45 negative.

[3] = system: TUBO murine mammary tumor cells; test: Senescence, SASP expression and ATP release of TUBO cells in low or high glucose media; format: cell-based, mouse
Method: (§2) Slides were deparaffinized in xylene and hydrated with alcohol before being placed in 0.3% H2O2/methanol blocking solution to quench endogenous peroxidase activity followed by subsequent antigen unmasking in EDTA buffer. […] Reactions were developed with 3,3′-diaminobenzidine chromogen or Vulcan Red, respectively, and counterstained with hematoxylin. Negative controls were obtained by using isotype-matched primary antibody IgG. The SA-βGal assay was performed using the Senescence Beta-galactosidase Staining Kit (Cell Signaling) (Dunn 2006). All images were captured using Zeiss Axiovert 200M and Zeiss Axiocam color digital camera controlled by OpenLab software with a 20× objective. All primers sequence and running protocols for RT-PCR can be found in reference Table 2 (Lugade 2008, Zhang 2008).

[4] = system: bone marrow DCs; test: BM-DC coculture with veliparib/IR treated B16 cells; format: cell-based, mouse
Source text: B16SIY cells were maintained in a full medium supplemented with 10% FCS. The cells were pretreated with 10 μm veliparib then exposed to 6 or 12 Gy x-ray or IR alone (Gammacell 1000; MDS Nordion, Kanata, Ontario, Canada), then cocultured with immature BM-DC in a transwell system. 3 days later BM-DC were collected and analyzed by FACS for cell surface maturation marker and intracellular cytokines. […]

[5] = system: B16SIY murine melanoma tumors; test: B16SIY tumor growth after veliparib and IR; format: in vivo, mouse; conditions: veliparib 0.5 mg twice daily oral + 6 or 12 Gy IR vs IR alone; C57/B6 mice
Method: as §1

[6] = system: B16 melanoma cells; test: RT-qPCR of SASP cytokines in B16 cells treated in vitro; format: cell-based, mouse; conditions: veliparib+IR
Method: as §2
B16SIY cells were maintained in a full medium supplemented with 10% FCS. The cells were pretreated with 10 μm veliparib then exposed to 6 or 12 Gy x-ray or IR alone (Gammacell 1000; MDS Nordion, Kanata, Ontario, Canada), then cocultured with immature BM-DC in a transwell system. 3 days later BM-DC were collected and analyzed by FACS for cell surface maturation marker and intracellular cytokines. These BM-DC were used to stimulate sorted CD4+ cells (Lugade 2008, Zhang 2008).

[7] = system: breast, prostate, melanoma and head and neck squamous cell cancer cell lines; test: Radiation induced senescence in different human cancer cell lines; format: cell-based; conditions: combined with radiation
[8] = system: B16SIY murine melanoma tumors; test: H/E and SA-βGal staining of treated B16 tumors; format: in vivo, mouse; conditions: veliparib+IR vs IR or veliparib alone; 7 days after IR
Method: as §1
Slides were deparaffinized in xylene and hydrated with alcohol before being placed in 0.3% H2O2/methanol blocking solution to quench endogenous peroxidase activity followed by subsequent antigen unmasking in EDTA buffer. […]

[9] = system: MCF7 Tet-On GFP-IBD human breast cancer cell line; test: GFP-53BP1 IRIF persistence, senescence and growth in MCF7 Tet-On GFP-IBD cells; format: cell-based
Method: To examine the effect of glucose metabolism on IRIF persistence in living cells, we exploited our previously described IRIF reporter consisting of GFP fused to the 53BP1 IRIF binding domain, expressed under tetracycline-inducible control. MCF7^Tet-On GFP-IBD cells were seeded at 3×10^5 per Fluorodish (World Precision Instruments, Inc.) in high-glucose (4.5 g/L) DMEM (Invitrogen) media supplemented with 10% Tet system-approved fetal bovine serum (Clontech) and 1 μg/mL doxycycline (Sigma). Next day media was exchanged for either high-glucose (4.5 g/L) or low-glucose (1 g/L) DMEM with 10% FBS and 1 μg/mL doxycycline. […] Cells were fixed at 3 h and 24 h for IRIF imaging and at day 5 for SA-βGal staining. Images were captured on Zeiss Axiovert 200M and a Hammatsu Orca ER FireWire digital monochrome (IRIF) or Zeiss Axiocam color digital camera (SA-βGal staining) controlled by OpenLab software.
To investigate what step of glycolysis is critical for improvement of DNA repair we used set of well established glycolysis inhibitors including glucose transporter Glut1 inhibitor, HXKi, GAPHi, PKi, LDHi. […] Given that elevated glycolysis predispose tumor cells for therapeutic resistance similar experiment has been performed on IR resistant PANC02 mouse pancreatic and U87 human glioma cell lines.

C[C@]1(c2nc3c(C(N)=O)cccc3[nH]2)CCCN1 [veliparib, (R)-2-(2-methylpyrrolidin-2-yl)-1H-benzo[d]imidazole-4-carboxamide]
NK cells in tumors [1]: more abundant
proportion of IFNγ-producing CD8+ cells among tumor infiltrating lymphocytes [1]: 29%
population of CD11c positive cells ([2]; TRAMP-C2 treated with 0 Gy+25 μM veliparib): 5.2%
population of CD11c positive cells ([2]; TRAMP-C2 treated with IR (6Gy)+25 μM veliparib): 36.7%
cell survival ([3]; IR and veliparib+IR, low glucose medium): more cells survived
senescent cell morphology and SA-βGal expression ([3]; veliparib and 12 Gy, data not shown): fail to display either the characteristic cell morphology or SA-βGal expression
IFNβ and CCL5 expression kinetics ([3]; veliparib+IR, high glucose media): only showed low level IFNβ and CCL5 at day 7
SA-βGal staining ([3]; veliparib+IR, low glucose media vs high glucose): More TUBO cells displayed enhanced senescence-associated β-galactosidase staining
extracellular ATP release ([3]; veliparib+IR, low glucose media, higher density): higher ATP was detected
IFNβ and CXCL11 expression kinetics ([3]; veliparib+IR, low glucose medium): started at day 5 through day 10
cell apoptosis ([3]; veliparib+IR, low vs high glucose medium): no increased cell apoptosis
CD8+ cell proliferation stimulated by cocultured DCs ([4]; DCs from coculture with veliparib+IR treated B16 cells): better stimulated CD8+ cell proliferation
CD11c+ cell proliferation ([4]; coculture with B16 cells treated with veliparib+6 Gy vs untreated or irradiated cells): increased CD11c+ cell proliferation
CD11c+ cell maturation (MHC-II+, CD86+) ([4]; coculture with veliparib+IR-treated cells vs radiation only): enhanced CD11c+ cell maturation
tumor regrowth [5]: markedly delayed tumor regrowth
chemokine expression (CCL2, CCL3, CCL5, CXCL9, CXCL10, CXCL11) [6]: upregulated
IFNβ transcription ([6]; 7 days after 6 Gy): increased transcription of IFNβ
IL-6 transcription ([6]; 7 days after 6 Gy): decreased IL-6
radiation induced senescence [7]: enhances radiation induced senescence
enlarged cells and SA-βGal staining in tumors [8]: greater numbers of enlarged cells and more intense SA-βGal staining
effect on cisplatin-induced foci persistence, senescence and growth suppression ([9]; combined with cisplatin): enhances this effect
accelerated senescence ([9]; combined with irradiation): induces accelerated senescence
persistence of GFP-53BP1 foci (IRIF) ([9]; combined with irradiation): enhance radiation induced persistence of GFP-53BP1 foci
foci persistence and senescence in presence of estrogen ([9]; irradiated cells, estrogen): overcomes the activity of estrogen
growth ([9]; veliparib+6 Gy vs veliparib or radiation alone): causes growth suppression
